From ChEMBL document CHEMBL4371065, “Design and synthesis of biaryloxazolidinone derivatives containing a rhodanine or thiohydantoin moiety as novel antibacterial agents against Gram-positive bacteria” (Bioorg Med Chem Lett, 2019)
In brackets after ≈: the same amount, converted by molar mass.

What was measured:
[1] = tested on: Staphylococcus aureus; experiment: Antibacterial activity against Staphylococcus aureus ATCC 29213 by broth liquid microdilution method; assay type: functional
[2] = tested on: Staphylococcus aureus; experiment: Antibacterial activity against methicillin-resistant Staphylococcus aureus by broth liquid microdilution method; assay type: functional
[3] = tested on: Staphylococcus aureus; experiment: Antibacterial activity against methicillin-sensitive Staphylococcus aureus by broth liquid microdilution method; assay type: functional
[4] = tested on: Enterococcus faecalis; experiment: Antibacterial activity against linezolid-resistant Enterococcus faecalis by broth liquid microdilution method; assay type: functional
[5] = tested on: Enterococcus faecium; experiment: Antibacterial activity against vancomycin-resistant Enterococcus faecium by broth liquid microdilution method; assay type: functional
[6] = tested on: Staphylococcus aureus; experiment: Antibacterial activity against clinical isolates of methicillin-resistant Staphylococcus aureus by broth liquid microdilution method; assay type: functional
[7] = tested on: Staphylococcus aureus; experiment: Antibacterial activity against clinical isolates of methicillin-sensitive Staphylococcus aureus by broth liquid microdilution method; assay type: functional
[8] = tested on: Enterococcus faecalis; experiment: Antibacterial activity against clinical isolates of linezolid-resistant Enterococcus faecalis by broth liquid microdilution method; assay type: functional
[9] = tested on: Enterococcus faecium; experiment: Antibacterial activity against clinical isolates of vancomycin-resistant Enterococcus faecium by broth liquid microdilution method; assay type: functional
[10] = tested on: Enterococcus faecalis; experiment: Potency index, ratio of linezolid MIC to compound MIC for clinical isolates of linezolid-resistant Enterococcus faecalis; assay type: functional
[11] = tested on: HepG2; experiment: Cytotoxicity against human HepG2 cells after 48 hrs by MTT assay; assay type: cell-based; conditions: HepG2, 48 h
[12] = target: T1, MAO-A (Homo sapiens, UniProt P21397); experiment: Inhibition of recombinant human full length N-terminal FLAG-tagged MAO-A expressed in sf9 cells at 30 uM preincubated for 15 mins followed by substrate addition and measured after 60 mins by luminescence assay relative to control
T1 sequence (P21397 whole entry): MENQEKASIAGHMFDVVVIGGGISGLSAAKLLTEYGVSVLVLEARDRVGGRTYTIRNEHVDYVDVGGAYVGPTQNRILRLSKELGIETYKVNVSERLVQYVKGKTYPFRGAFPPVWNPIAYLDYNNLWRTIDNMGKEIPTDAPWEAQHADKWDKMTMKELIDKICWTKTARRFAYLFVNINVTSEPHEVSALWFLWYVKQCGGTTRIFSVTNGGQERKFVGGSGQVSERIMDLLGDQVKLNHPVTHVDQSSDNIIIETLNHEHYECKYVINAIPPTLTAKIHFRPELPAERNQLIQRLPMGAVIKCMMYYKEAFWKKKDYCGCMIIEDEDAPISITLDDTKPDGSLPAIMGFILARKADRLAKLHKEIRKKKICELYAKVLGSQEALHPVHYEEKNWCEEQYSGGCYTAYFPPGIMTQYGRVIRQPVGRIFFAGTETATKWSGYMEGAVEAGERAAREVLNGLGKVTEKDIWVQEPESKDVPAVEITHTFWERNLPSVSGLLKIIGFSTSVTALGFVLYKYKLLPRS

[13] = tested on: Staphylococcus aureus; experiment: Potency index, ratio of radezolid MIC to compound MIC for Staphylococcus aureus ATCC 29213; assay type: functional
[14] = tested on: Staphylococcus aureus; experiment: Potency index, ratio of radezolid MIC to compound MIC for methicillin-sensitive Staphylococcus aureus; assay type: functional
[15] = tested on: Enterococcus faecalis; experiment: Potency index, ratio of radezolid MIC to compound MIC for linezolid-resistant Enterococcus faecalis; assay type: functional
[16] = tested on: Enterococcus faecium; experiment: Potency index, ratio of radezolid MIC to compound MIC for vancomycin-resistant Enterococcus faecium; assay type: functional

| SMILES | MIC [1] [µg/mL] | MIC [2] [µg/mL] | MIC [3] [µg/mL] | MIC [4] [µg/mL] | MIC [5] [µg/mL] | MIC [6] [µg/mL] | MIC [7] [µg/mL] | MIC [8] [µg/mL] | MIC [9] [µg/mL] | Ratio [10] | IC50 [11] [µM] | inhibition at 1 h, 30 µM [12] [%] | Ratio [13] | Ratio [14] | Ratio [15] | Ratio [16] |
| --- | --- | --- | --- | --- | --- | --- | --- | --- | --- | --- | --- | --- | --- | --- | --- | --- |
| CC(=O)NC[C@H]1CN(c2ccc(-c3ccc(/C=C4\SC(=S)N(CC(=O)O)C4=O)cc3)c(F)c2)C(=O)O1 | 1 (≈ 1.89 µM) | 1 (≈ 1.89 µM) | 1 (≈ 1.89 µM) | 1 (≈ 1.89 µM) | 1 (≈ 1.89 µM) |  |  |  |  |  |  |  |  |  |  |  |
| CC(=O)NC[C@H]1CN(c2ccc(-c3ccc(/C=C4\SC(=S)N(C(C)C(=O)O)C4=O)cc3)c(F)c2)C(=O)O1 (stereo partly specified) | 1 (≈ 1.84 µM) | 1 (≈ 1.84 µM) | 1 (≈ 1.84 µM) | 1 (≈ 1.84 µM) | 1 (≈ 1.84 µM) |  |  |  |  |  |  |  |  |  |  |  |
| CC(=O)NC[C@H]1CN(c2ccc(-c3ccc(/C=C4\SC(=S)N(CCCN5CCCCC5)C4=O)cc3)c(F)c2)C(=O)O1 | 1 (≈ 1.68 µM) | 1 (≈ 1.68 µM) | 1 (≈ 1.68 µM) | 1 (≈ 1.68 µM) | 1 (≈ 1.68 µM) |  |  |  |  |  |  |  |  |  |  |  |
| CCN(CC)CCCN1C(=O)/C(=C/c2ccc(-c3ccc(N4C[C@H](CNC(C)=O)OC4=O)cc3F)cc2)NC1=S | 0.125 (≈ 0.22 µM) | 0.125 (≈ 0.22 µM) | 0.125 (≈ 0.22 µM) | 0.125 (≈ 0.22 µM) | 0.125 (≈ 0.22 µM) | 0.125 to 0.5 (≈ 0.22 to 0.881 µM) | 0.125 to 0.25 (≈ 0.22 to 0.44 µM) | 0.125 to 0.25 (≈ 0.22 to 0.44 µM) | 0.25 to 0.5 (≈ 0.44 to 0.881 µM) | 64 | 91 | 98 |  |  |  |  |
| CCOC(=O)CN1C(=O)/C(=C/c2ccc(-c3ccc(N4C[C@H](CNC(C)=O)OC4=O)cc3F)cc2)SC1=S | 1 (≈ 1.79 µM) | 1 (≈ 1.79 µM) | 1 (≈ 1.79 µM) | 1 (≈ 1.79 µM) | 1 (≈ 1.79 µM) |  |  |  |  |  |  |  |  |  |  |  |
| CC(=O)NC[C@H]1CN(c2ccc(-c3ccc(/C=C4\NC(=S)N(CCCN5CCOCC5)C4=O)cc3)c(F)c2)C(=O)O1 | 2 (≈ 3.44 µM) | 2 (≈ 3.44 µM) | 2 (≈ 3.44 µM) | 2 (≈ 3.44 µM) | 2 (≈ 3.44 µM) |  |  |  |  |  |  |  |  |  |  |  |
| CC(=O)NC[C@H]1CN(c2ccc(-c3ccc(/C=C4\NC(=S)N(CCCN5CCCCC5)C4=O)cc3)c(F)c2)C(=O)O1 | 1 (≈ 1.73 µM) | 1 (≈ 1.73 µM) | 1 (≈ 1.73 µM) | 1 (≈ 1.73 µM) | 1 (≈ 1.73 µM) |  |  |  |  |  |  |  |  |  |  |  |
| CC(=O)NC[C@H]1CN(c2ccc(-c3ccc(/C=C4\SC(=S)N(C)C4=O)cc3)c(F)c2)C(=O)O1 | 0.25 (≈ 0.515 µM) | 0.25 (≈ 0.515 µM) | 0.25 (≈ 0.515 µM) | 0.25 (≈ 0.515 µM) | 0.25 (≈ 0.515 µM) |  |  |  |  |  |  |  |  |  |  |  |
| CC(=O)NC[C@H]1CN(c2ccc(-c3ccc(/C=C4\SC(=S)N(C(C(=O)O)c5ccccc5)C4=O)cc3)c(F)c2)C(=O)O1 (stereo partly specified) | 1 (≈ 1.65 µM) | 1 (≈ 1.65 µM) | 1 (≈ 1.65 µM) | 1 (≈ 1.65 µM) | 1 (≈ 1.65 µM) |  |  |  |  |  |  |  |  |  |  |  |
| CC(=O)NC[C@H]1CN(c2ccc(-c3ccc(/C=C4\SC(=S)NC4=O)cc3)c(F)c2)C(=O)O1 | 0.125 (≈ 0.265 µM) | 0.125 (≈ 0.265 µM) | 0.125 (≈ 0.265 µM) | 0.125 (≈ 0.265 µM) | 0.125 (≈ 0.265 µM) |  | 1 to 2 (≈ 2.12 to 4.24 µM) | 1 to 2 (≈ 2.12 to 4.24 µM) | 1 to 2 (≈ 2.12 to 4.24 µM) |  | 63.9 | 99 | 4 | 4 | 4 | 4 |
| CCN(CC)CCCN1C(=O)/C(=C/c2ccc(-c3ccc(N4C[C@H](CNC(C)=O)OC4=O)cc3F)cc2)SC1=S | 0.5 (≈ 0.855 µM) | 0.5 (≈ 0.855 µM) | 0.5 (≈ 0.855 µM) | 0.5 (≈ 0.855 µM) | 0.5 (≈ 0.855 µM) |  |  |  |  |  |  |  |  |  |  |  |
| CCN1C(=O)/C(=C/c2ccc(-c3ccc(N4C[C@H](CNC(C)=O)OC4=O)cc3F)cc2)SC1=S | 0.25 (≈ 0.5 µM) | 0.25 (≈ 0.5 µM) | 0.25 (≈ 0.5 µM) | 0.5 (≈ 1 µM) | 0.5 (≈ 1 µM) |  |  |  |  |  |  |  |  |  |  |  |
| CCN1C(=O)/C(=C/c2ccc(-c3ccc(N4C[C@H](CNC(C)=O)OC4=O)cc3F)cc2)NC1=S | 0.25 (≈ 0.518 µM) | 0.25 (≈ 0.518 µM) | 0.25 (≈ 0.518 µM) | 0.25 (≈ 0.518 µM) | 0.25 (≈ 0.518 µM) |  |  |  |  |  |  |  |  |  |  |  |
| CCCN1C(=O)/C(=C/c2ccc(-c3ccc(N4C[C@H](CNC(C)=O)OC4=O)cc3F)cc2)SC1=S | 2 (≈ 3.89 µM) | 2 (≈ 3.89 µM) | 2 (≈ 3.89 µM) | 2 (≈ 3.89 µM) | 2 (≈ 3.89 µM) |  |  |  |  |  |  |  |  |  |  |  |
| CCOC(=O)CN1C(=O)/C(=C/c2ccc(-c3ccc(N4C[C@H](CNC(C)=O)OC4=O)cc3F)cc2)NC1=S | 1 (≈ 1.85 µM) | 1 (≈ 1.85 µM) | 1 (≈ 1.85 µM) | 1 (≈ 1.85 µM) | 1 (≈ 1.85 µM) |  |  |  |  |  |  |  |  |  |  |  |
| CC(=O)NC[C@H]1CN(c2ccc(-c3ccc(/C=C4\NC(=S)N(C(C)C)C4=O)cc3)c(F)c2)C(=O)O1 | 1 (≈ 2.01 µM) | 1 (≈ 2.01 µM) | 1 (≈ 2.01 µM) | 0.5 (≈ 1.01 µM) | 0.5 (≈ 1.01 µM) |  |  |  |  |  |  |  |  |  |  |  |
| CC(=O)NC[C@H]1CN(c2ccc(-c3ccc(/C=C4\NC(=S)NC4=O)cc3)c(F)c2)C(=O)O1 | 0.125 (≈ 0.275 µM) | 0.125 (≈ 0.275 µM) | 0.125 (≈ 0.275 µM) | 0.125 (≈ 0.275 µM) | 0.125 (≈ 0.275 µM) |  | 0.5 to 1 (≈ 1.1 to 2.2 µM) | 0.25 to 0.5 (≈ 0.55 to 1.1 µM) | 0.25 to 0.5 (≈ 0.55 to 1.1 µM) |  | 61.7 | 99 |  |  |  |  |
| CC(=O)NC[C@H]1CN(c2ccc(-c3ccc(/C=C4\NC(=S)N(C)C4=O)cc3)c(F)c2)C(=O)O1 | 0.5 (≈ 1.07 µM) | 0.5 (≈ 1.07 µM) | 0.5 (≈ 1.07 µM) | 0.5 (≈ 1.07 µM) | 0.5 (≈ 1.07 µM) |  |  |  |  |  |  |  |  |  |  |  |
| CCCN1C(=O)/C(=C/c2ccc(-c3ccc(N4C[C@H](CNC(C)=O)OC4=O)cc3F)cc2)NC1=S | 2 (≈ 4.03 µM) | 2 (≈ 4.03 µM) | 2 (≈ 4.03 µM) | 2 (≈ 4.03 µM) | 2 (≈ 4.03 µM) |  |  |  |  |  |  |  |  |  |  |  |
| CC(=O)NC[C@H]1CN(c2ccc(N3CCOCC3)c(F)c2)C(=O)O1 [LINEZOLID] | 1 (≈ 2.96 µM) | 1 (≈ 2.96 µM) | 1 (≈ 2.96 µM) | > 16 | 2 (≈ 5.93 µM) |  | 1 to 4 (≈ 2.96 to 11.9 µM) | > 16 | 1 to 4 (≈ 2.96 to 11.9 µM) |  | > 25 | 76 |  |  |  |  |
| CC(=O)NC[C@H]1CN(c2ccc(-c3ccc(CNCc4cnn[nH]4)cc3)c(F)c2)C(=O)O1 [RADEZOLID] | 0.5 (≈ 1.14 µM) | 0.5 (≈ 1.14 µM) | 0.5 (≈ 1.14 µM) | 0.5 (≈ 1.14 µM) | 0.5 (≈ 1.14 µM) |  |  |  |  |  |  |  |  |  |  |  |
